Laboratory results published in the supplement of paper PMC10307832.

Assays:
Experiment in all cases: relative viability (nuclei count vs DMSO), 5 days (fraction); higher = more cells survive
Kobe2602 + Dasatinib = compound: C1=CC(=CC=C1NC(=S)NNC2=C(C=C(C=C2[N+](=O)[O-])C(F)(F)F)[N+](=O)[O-])F [Kobe2602] + Cc1nc(Nc2ncc(C(=O)Nc3c(C)cccc3Cl)s2)cc(N2CCN(CCO)CC2)n1 [Dasatinib] (partner 0.075 µM)
Method in brief: (§1)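 Lung cancer cell lines were seeded in 1536-well plates and dosed by pin tool the next day, with either a single drug or a fixed anchor-drug dose combined with five library-drug doses (not always all listed) spaced in √10 steps. Five days later, one step fixed the cells and stained their nuclei (final 0.05% Triton X-100, 1% formaldehyde, 1 ug/ml Hoechst), and nuclei were counted on 4× images. Relative viability is the nuclei count in treated wells divided by the count in vehicle wells, and each value is the median of duplicate plates.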

[1] = compound: COc1cc2nccc(Oc3ccc(NC(=O)C4(C(=O)Nc5ccc(F)cc5)CC4)cc3)c2cc1OC [Cabozantinib] + CC(=O)c1c(C)c2cnc(Nc3ccc(N4CCNCC4)cn3)nc2n(C2CCCC2)c1=O [Palbociclib] (partner 0.5 µM)
Method in brief: as §1

[2] = compound: COc1cc2nccc(Oc3ccc(NC(=O)C4(C(=O)Nc5ccc(F)cc5)CC4)cc3)c2cc1OC [Cabozantinib] + CC1(C)CCC(c2ccc(Cl)cc2)=C(CN2CCN(c3ccc(C(=O)NS(=O)(=O)c4ccc(N[C@H](CCN5CCOCC5)CSc5ccccc5)c(S(=O)(=O)C(F)(F)F)c4)cc3)CC2)C1 [Navitoclax] (partner 0.5 µM)
Method in brief: as §1

Zosuquidar + AZD7762 = compound: O[C@@H](COc1cccc2ncccc12)CN1CCN([C@@H]2c3ccccc3[C@@H]3[C@H](c4ccccc42)C3(F)F)CC1 [Zosuquidar] + NC(=O)Nc1cc(-c2cccc(F)c2)sc1C(=O)N[C@H]1CCCNC1 [AZD7762] (partner 0.2 µM)
Method in brief: as §1

Cell Line	relative viability (Kobe2602 + Dasatinib; first compound 0.2 µM)	relative viability (Kobe2602 + Dasatinib; first compound 0.6325 µM)	relative viability (Kobe2602 + Dasatinib; first compound 2 µM)	relative viability (Kobe2602 + Dasatinib; first compound 6.325 µM)	relative viability (Kobe2602 + Dasatinib; first compound 20 µM)	relative viability ([1]; first compound 0.02 µM)	relative viability ([1]; first compound 0.06325 µM)	relative viability ([1]; first compound 0.2 µM)	relative viability ([1]; first compound 0.6325 µM)	relative viability ([1]; first compound 2 µM)	relative viability ([2]; first compound 0.02 µM)	relative viability ([2]; first compound 0.06325 µM)	relative viability ([2]; first compound 0.2 µM)	relative viability ([2]; first compound 0.6325 µM)	relative viability ([2]; first compound 2 µM)	relative viability (Zosuquidar + AZD7762; first compound 0.01 µM)	relative viability (Zosuquidar + AZD7762; first compound 0.03162 µM)	relative viability (Zosuquidar + AZD7762; first compound 0.1 µM)	relative viability (Zosuquidar + AZD7762; first compound 0.3162 µM)	relative viability (Zosuquidar + AZD7762; first compound 1 µM)
HCC-366	0.613	0.632	0.597	0.646	0.727	0.491	0.503	0.399	0.364	0.451	1.15	1.11	1.16	1.03	1.06	0.23	0.227	0.285	0.369	0.298
HCC-827	0.289	0.284	0.43	0.388	0.404	0.415	0.535	–	0.577	0.399	1.05	1.07	–	1.05	0.981	0.171	0.212	0.148	0.216	0.192
IA-LM	–	–	–	–	–	–	–	–	–	–	1.1	0.912	1.02	1.01	0.965	–	–	–	–	–
LCLC-103H	0.47	0.487	0.457	0.512	0.49	0.492	0.463	0.464	0.434	0.435	–	–	–	–	–	0.793	0.76	0.672	0.755	0.809
NCI-H358	0.176	0.167	0.209	0.172	0.186	0.112	0.138	0.163	0.135	0.135	–	–	–	–	–	0.55	0.541	0.492	0.503	0.43
NCI-H520	0.205	0.233	0.197	0.222	0.202	0.266	0.245	0.268	0.228	0.203	0.902	1.16	1.21	1.02	0.998	–	–	–	–	–
NCI-H522	0.83	0.977	0.914	0.874	0.952	0.885	0.966	1.06	1.12	0.905	–	–	–	–	–	0.993	0.928	1.05	0.807	0.984
NCI-H596	0.57	0.678	0.57	0.661	0.644	–	–	–	–	–	1.22	1.2	0.861	0.829	0.729	0.974	1.14	0.958	1.25	1.28
NCI-H650	0.429	0.564	0.501	0.517	0.5	0.343	0.325	0.339	0.317	0.296	–	–	–	–	–	0.944	0.801	0.897	1.31	0.898
NCI-H661	0.799	1.09	0.904	0.847	0.758	0.385	0.43	0.425	0.422	0.463	–	–	–	–	–	–	–	–	–	–
NCI-H1299	–	–	–	–	–	–	–	–	–	–	1.03	1.04	1.08	1.06	1.09	–	–	–	–	–
NCI-H1563	0.473	0.473	0.466	0.467	0.527	–	–	–	–	–	–	–	–	–	–	–	–	–	–	–
NCI-H1623	0.577	0.555	0.427	0.532	0.575	–	–	–	–	–	–	–	–	–	–	–	–	–	–	–
NCI-H1648	–	–	–	–	–	0.27	0.259	–	0.281	0.299	–	–	–	–	–	0.633	1.13	0.671	0.538	0.594
NCI-H1650	0.285	0.396	0.285	0.255	0.227	0.361	0.301	0.27	0.36	0.486	1.19	1.5	1.07	1.23	1.06	–	–	–	–	–
NCI-H1703	–	–	–	–	–	–	–	–	–	–	0.618	0.48	0.265	0.258	0.206	0.0988	0.125	–	0.136	0.125
NCI-H2009	0.282	0.368	0.332	0.336	0.312	0.209	0.25	0.269	0.277	0.141	1.25	1.19	1.21	1.18	1.2	–	–	–	–	–
NCI-H2023	0.532	0.583	0.547	0.484	0.394	0.386	0.321	0.271	0.247	0.199	1.07	1.05	0.931	0.872	0.691	–	–	–	–	–
NCI-H2228	0.415	0.549	0.504	0.502	0.529	0.588	1.08	0.802	0.941	0.837	0.784	0.689	0.725	0.824	0.805	–	–	–	–	–
NCI-H2342	0.285	0.323	0.367	0.303	0.333	0.519	0.466	0.493	0.501	0.495	–	–	–	–	–	0.63	0.527	0.44	0.552	0.47
SK-LU-1	0.18	0.184	0.177	0.17	0.187	0.357	0.486	0.439	0.344	0.364	–	1.09	0.967	0.852	0.988	–	–	–	–	–
SK-MES-1	0.368	0.489	0.4	0.415	0.305	0.34	0.305	0.379	0.39	0.298	1.28	1.24	1.22	1.23	1.19	–	–	–	–	–
SW 900	0.463	0.836	0.586	0.537	0.898	0.585	0.601	0.436	0.55	0.492	–	–	–	–	–	0.597	0.782	–	0.668	0.636
SW 1573	0.473	0.655	0.58	0.483	0.243	0.422	0.456	0.364	0.39	0.308	1.04	1.17	0.887	1	0.81	–	–	–	–	–
